Patent US6369003B1, “Process and composition for soil improvement by reducing microbially formed ethylene in the soil” (BASF Aktiengesellschaft, priority 1994, dated 2002)

Tests used:
[1] = system: Chick-pea plants (UC-27); test: Chick-peas: root nodules, root and shoot biomass, greenhouse; format: in vivo, Cicer arietinum; conditions: 25 days after treatment; for Nodules: untreated 11.3; for Dry matter root: untreated 1100; for Dry matter shoot: untreated 2110
Experimental: (§1) In these tests various types of non-sterile soils were used. The cultivation of the plants was carried out under greenhouse or climatic chamber conditions. The active compounds according to the invention were applied uniformly distributed over the soil surface in an aqueous preparation after the emergence of the respective test plants. The supply of water for the plants was carrried out using the same technique, always paying attention to uniform moistness of the soil. In the case of the cultivation of legumes, defined amounts of species-specific Rhizobia were admixed to the soil. In some cases inoculation was also carried out by seed treatment.
Chick-pea plants (UC-27) were cultivated under greenhouse conditions in low N, sandy loam soil in plastic pots (750 ml) and watered from above as required. A few days after emergence the plants were thinned out to 3 plants per pot.
In 6 pots in each case 25 ml each of an aqueous preparation of one concentration of 2.3.1.3 were applied by watering. 6 pots remained untreated.
25 days after treatment the following results were obtained: […]

[2] = system: Wheat (Ralle); test: Promotion of shoot growth of wheat, greenhouse; format: in vivo; conditions: applied by watering 10 days after sowing; 3 weeks after treatment
Experimental: as §1
Wheat (Ralle) and rape (Petranova) plants were cultured under greenhouse conditions in low N Limburgerhof soil in plastic pots (500 ml) and watered from above as required. The water content of the soil here was about 80% of the maximum water capacity. A few days after emergence the plants were thinned out to 40 plants per pot.
10 days after sowing aqueous preparations of 2.3.1.3 were applied by watering to 8 pots per test series in each case. 16 pots in each case remained untreated. 3 weeks after treatment the fresh shoot weight of the plants was determined.

[3] = system: Soybeans of the variety Delta Pine 147; test: Field test: seed yield in soybeans; format: in vivo, Glycine max; conditions: untreated = 100 (29.9 dt/ha)
Experimental: The tests a) and b) were carried out under conditions like those in practice in 1993 on the field test site of BASF Corporation in Holly Springs, N.C., USA. This location is distinguished by a medium-heavy soil (sandy loam).
Soybeans of the variety Delta Pine 147 were used. Treatment was carried out to the following stages of development: 11 (1st trefoil formed), 13 (3rd trefoil formed) and 14 (5th trefoil formed). For treatment, the soil between the rows was sprayed with an aqueous preparation of the active compound 2.3.1.3. Immediately after the application, the active compound was washed into the soil by spray irrigation with 20 mm of water. The spray irrigation was also used to wash off active compound which had possibly reached the leaves.
Harvesting of the plants at full maturity gave the following results: […]

[4] = system: Peas (Kleine Rheinländerin); test: Peas test 2a: biomass, root nodules, nitrogen assimilation, greenhouse; format: in vivo, Pisum sativum; conditions: 3 weeks after treatment; for Dry matter (shoot + root): control 3.3; for Nodules: control 13; for Total N (total nitrogen in shoot + root): control 78.5
Experimental: as §1
a) Peas (Kleine Rheinländerin) were cultivated under greenhouse conditions in low N Limburgerhof soil in plastic pots (500 ml) and watered from above as required (a constant weight was maintained here). A few days after emergence the plants were thinned out to 5 plants per pot.
In four pots in each case aqueous active compound solutions of one concentration of 2.3.1.3 were applied by watering. Four pots remained untreated.
3 weeks after treatment the following results were obtained: […]

[5] = system: Soybean plants (Delta Pine 415); test: Soybeans test 3b: root nodules, greenhouse; format: in vivo, Glycine max; conditions: untreated 47
Experimental: as §1
(§2) a) Soybean plants (Delta Pine 415) were cultivated under greenhouse conditions in low N Limburgerhof soil in plastic pots (500 ml) and watered from above as required. A few days after emergence the plants were thinned out to 5 plants per pot.
(§3) In 8 pots in each case per test member an aqueous active compound solution of 2.3.1.3 was applied by watering. 16 pots remained untreated in each case.
b) Test procedure as in 3 a) active compound 2.3.1.3

[6] = system: Soybean plants (Delta Pine 415); test: Soybeans test 3a: root nodules and total N, greenhouse; format: in vivo, Glycine max; conditions: after 3 weeks; for Nodules: untreated 49
Experimental: as §1, §2, §3

[7] = system: Groudnuts of the variety Florigiant; test: Field test: seed yield and seed quality in groundnuts; format: in vivo, Arachis hypogaea; conditions: for Seeds of the highest quality level: relative, untreated = 100 (38.0 %); for Yield of groundnuts: untreated = 100 (45.4 dt/ha)
Experimental: The tests a) and b) were carried out under conditions like those in practice in 1993 on the field test site of BASF Corporation in Holly Springs, N.C., USA. This location is distinguished by a medium-heavy soil (sandy loam). Groudnuts of the variety Florigiant were used. Treatment was carried out 20, 27 and 34 days after emergence of the plants. For treatment, the soil between the rows was sprayed with an aqueous preparation of the active compound 2.3.1.3. Immediately after application the active compound was washed into the soil by spray irrigation with 20 mm of water. The spray irrigation was also used to wash off active compound which had possibly reached the leaves. Harvesting of the plants at full maturity gave the following results: […]

[8] = 10 g/ha of a.s., treated 20 days after emergence
[9] = 10 g/ha of a.s., treated 27 days after emergence
[10] = 10 g/ha of a.s., treated 34 days after emergence
[11] = 100 g/ha of a.s., treated 20 days after emergence
[12] = 100 g/ha of a.s., treated 27 days after emergence
[13] = 100 g/ha of a.s., treated 34 days after emergence
[14] = 1000 g/ha of a.s., treated 20 days after emergence
[15] = 1000 g/ha of a.s., treated 27 days after emergence
[16] = 1000 g/ha of a.s., treated 34 days after emergence

COC(=O)COC(=O)CON=C(C)C [active compound 2.3.1.3] showed a Nodules ([1]; 30 g of a.s./ha) of 31.4 number/plant, a Dry matter root ([1]; 30 g of a.s./ha) of 1280 mg/plant and a Dry matter shoot ([1]; 30 g of a.s./ha) of 2690 mg/plant. The Nodules ([1]; 300 g of a.s./ha) was 44.0 number/plant, the Dry matter root ([1]; 300 g of a.s./ha) was 1520 mg/plant and the Dry matter shoot ([1]; 300 g of a.s./ha) was 3350 mg/plant. The Nodules ([1]; 3000 g of a.s./ha) was 6.2 number/plant, the Dry matter root ([1]; 3000 g of a.s./ha) was 1150 mg/plant and the Dry matter shoot ([1]; 3000 g of a.s./ha) was 4110 mg/plant. The “shoot growth (fresh shoot weight)” value [2] was “shoot growth was promoted in nearly all cases”, the Bean yield ([3]; 10 g/ha of a.s., growth stage 11 during treatment) was 104% and the Bean yield ([3]; 10 g/ha of a.s., growth stage 13 during treatment) was 116%. For the same compound, the Bean yield ([3]; 10 g/ha of a.s., growth stage 14 during treatment) was 110%, the Bean yield ([3]; 100 g/ha of a.s., growth stage 11 during treatment) was 122% and the Bean yield ([3]; 100 g/ha of a.s., growth stage 13 during treatment) was 117%. For the same compound, the Bean yield ([3]; 100 g/ha of a.s., growth stage 14 during treatment) was 112%, the Bean yield ([3]; 1000 g/ha of a.s., growth stage 11 during treatment) was 110% and the Bean yield ([3]; 1000 g/ha of a.s., growth stage 13 during treatment) was 122%. The Bean yield ([3]; 1000 g/ha of a.s., growth stage 14 during treatment) was 108%, the “Dry matter (shoot + root)” value ([4]; 0.03 mg/pot) was 3.2 g/pot and the Nodules ([4]; 0.03 mg/pot) was 28 number/pot. The “Total N (total nitrogen in shoot + root)” value ([4]; 0.03 mg/pot) was 75.0 mg/pot, the “Dry matter (shoot + root)” value ([4]; 0.30 mg/pot) was 4.0 g/pot and the Nodules ([4]; 0.30 mg/pot) was 127 number/pot. The “Total N (total nitrogen in shoot + root)” value ([4]; 0.30 mg/pot) was 120.5 mg/pot, the “Dry matter (shoot + root)” value ([4]; 3.00 mg/pot) was 3.1 g/pot and the Nodules ([4]; 3.00 mg/pot) was 99 number/pot. For the same compound, the “Total N (total nitrogen in shoot + root)” value ([4]; 3.00 mg/pot) was 109.5 mg/pot, the Nodules ([5]; 0.003 mg of a.s./pot; procedure as in 3 a)) was 72 number/pot and the Nodules ([5]; 0.030 mg of a.s./pot; procedure as in 3 a)) was 83 number/pot. The Nodules ([5]; 0.300 mg of a.s./pot; procedure as in 3 a)) was 69 number/pot, the “Total N (shoot + root)” value ([6]; 0.003 mg of a.s./pot) was 109 % of control and the Nodules ([6]; 0.003 mg of a.s./pot) was 60 number/pot. The “Total N (shoot + root)” value ([6]; 0.030 mg of a.s./pot) was 108 % of control, the Nodules ([6]; 0.030 mg of a.s./pot) was 62 number/pot and the “Total N (shoot + root)” value ([6]; 0.300 mg of a.s./pot) was 118 % of control. The Nodules ([6]; 0.300 mg of a.s./pot) was 73 number/pot, the “Seeds of the highest quality level” value [7, 8] was 124% and the Yield of groundnuts [7, 8] was 108%. For the same compound, the “Seeds of the highest quality level” value [7, 9] was 121%, the Yield of groundnuts [7, 9] was 109% and the “Seeds of the highest quality level” value [7, 10] was 113%. For the same compound, the Yield of groundnuts [7, 10] was 124%, the “Seeds of the highest quality level” value [7, 11] was 95% and the Yield of groundnuts [7, 11] was 121%. For the same compound, the “Seeds of the highest quality level” value [7, 12] was 113%, the Yield of groundnuts [7, 12] was 104% and the “Seeds of the highest quality level” value [7, 13] was 84%. The Yield of groundnuts [7, 13] was 121%, the “Seeds of the highest quality level” value [7, 14] was 103% and the Yield of groundnuts [7, 14] was 113%. The “Seeds of the highest quality level” value [7, 15] was 113%, the Yield of groundnuts [7, 15] was 120% and the “Seeds of the highest quality level” value [7, 16] was 108%. For the same compound, the Yield of groundnuts [7, 16] was 113%.
